A word on the melting point: it is the temperature of the solid-liquid transition.

`O=C(CCCCCCC(=O)N1CCN(c2cccc(F)c2)CC1)NO` displayed a melting point of 149 to 150 °C.

The compound `Fc1ccccc1-c1nc(Cl)nc2ccc(Cl)cc12` displayed a melting point of 208 to 210 °C.

With `CS(=O)(=O)c1ccc(-c2coc(=O)n2-c2ccc(Br)cc2)cc1`, the melting point lay in the range of 217 to 219 °C.

In the case of `COc1cccc(-c2ccnc(Nc3cccc(OC(F)(F)C(F)F)c3)n2)c1`, the melting point was 103 to 104 °C.

In turn, `COc1cc2c(cc1Cl)CCNCC2c1ccc(Br)cc1` (stereo unspecified) returned a melting point of 139 to 140 °C.

Consider `COc1ccc(CCN(C)CCCNc2c(Cl)cn[nH]c2=O)cc1OC`, for which the melting point fell in the range of 89 to 90 °C.

As for `CCc1cc2c([nH]c1=O)c(C)cc1cc(CBr)oc12`, the melting point was in the range of 237 to 240 °C.

`CCNC(=O)n1nc(Oc2c(F)cc(C(F)(F)F)cc2F)cc1C`: the melting point fell in the range of 102 to 104 °C.

Turning to `CC#CCOc1ccc(S(=O)(=O)N[C@H]2CCCC[C@H]2C(=O)NO)cc1`, the melting point lay in the range of 140 to 145 °C.

Consider `CC(C)(C)OC(=O)N1CCC(O)(CS(N)(=O)=O)CC1`, for which the melting point was in the range of 176 to 180 °C.

Compound `Cc1ccc(O)c2[nH]c(Cc3ccccc3)nc12` gave a melting point of 204 to 205 °C.

Compound `CCn1cc(C(=O)O)c(=O)c2c(C)c(F)c(F)c(F)c21` showed a melting point of 203 to 204 °C.

In turn, `S=C(Cc1ccc(Cl)cc1)N1CCCCC1` showed a melting point of 82.5 to 83.5 °C.

For `CCOC(=O)[C@@]1(F)[C@@H]2CC=C(C(=O)OCc3ccccc3)[C@@H]21`, the melting point is 90 to 91 °C.

`Cc1c(/C=C/c2cccc([N+](=O)[O-])c2C)cccc1[N+](=O)[O-]` returned a melting point of 246 °C.

`CNC(=O)c1sc(C(C)(C)C)cc1NC(=O)Nc1ccc(C(C)C)cc1` returned a melting point of 113 to 120 °C.

In turn, `CC(C)(O)C(=O)c1ccc(C(O)c2ccc(C(=O)C(C)(C)O)cc2)cc1` had a melting point of 130 °C.

Take `CNc1ccc2c(c1)C(c1ccccc1F)=NCc1cnc(C)n1-2`: the melting point is 255 to 259 °C.

Compound `COC(=O)c1ccn2c1C(C(=O)OC)CCC2` (stereo unspecified) gave a melting point of 108 °C.

`CN(C)c1nc(-c2ccc(Cl)cc2)c(CCC(=O)O)o1` registered a melting point of 189 to 190 °C.

The compound `CC(C)N(CC1CCCCN1CCNC(=O)N1c2ccccc2C(=O)Nc2cccnc21)C(C)C` (stereo unspecified) showed a melting point of 181 to 182 °C.

Take `CCOC(=O)C1=C(C)NC(C)=C(C(=O)OCCN2CCC(C(c3ccccc3)c3ccccc3)CC2)C1c1cccc(Cl)c1Cl` (stereo unspecified): the melting point is 81 to 85 °C.

The compound `COc1ccc2nn(C)cc2c1C1CC1CNC(C)=O` (stereo unspecified) had a melting point of 104 to 105 °C.

With `CCOC(=O)C(=O)c1oc(-n2ccnc2C)nc1-c1ccc(Cl)cc1`, the melting point lay within 126 to 127 °C.

`COCCOc1nc(Nc2cccc(NS(C)(=O)=O)c2)nc2[nH]cnc12` gave a melting point of 201 to 204 °C.

`CS(=O)(=O)c1ccc(C2=CC(=O)C3(CCOCC3)O2)cc1` had a melting point of 163 to 165 °C.

`CC(C)N(C(C)C)C(C)CN1C(=O)/C(=N/NC(N)=O)c2ccccc21` (stereo unspecified) came in with a melting point of 201 to 204 °C.

`O=Cc1cccc(OCc2ccccc2)c1Br`: the melting point fell in the range of 125 to 126 °C.

On to `CN1C(=O)N(C)C(Cc2c[nH]c3ccccc23)C1CCc1cc(C(F)(F)F)cc(C(F)(F)F)c1` (stereo unspecified), for which the melting point lay within 202 to 205 °C.

Consider `Cc1c(C2CCC(c3ccccc3)(N(C)C)CC2)[nH]c2ccc(C(F)(F)F)cc12` (stereo unspecified), for which the melting point lay in the range of 204 to 217 °C.

Regarding `COc1ccc(N)cc1CNC(C)=O`, the melting point fell in the range of 123 to 125 °C.

On to `O=C(Nc1ccc(-n2nc(C(F)(F)F)cc2C2CC2)cc1)c1c(F)cccc1F`, for which the melting point lay within 188 to 191 °C.

As to `COC1=CC(=O)C(O)=C(CCCCCCCC(O)C(O)CCCCCCCC2=C(O)C(=O)C=C(OC)C2=O)C1=O` (stereo unspecified), the melting point lay in the range of 132 to 134 °C.

For `CNC(=O)c1cccc(NC(=O)Cc2cccc(C)c2)c1`, the melting point was found to be 131 °C.

With `O=c1c2ccoc2c2cccnc2n1-c1ccccc1`, the melting point was in the range of 245 to 247 °C.

With `CC(=O)Oc1cc(/C=C/c2ccccc2)cc(OC(C)=O)c1OC(C)=O`, the melting point is 119 to 120 °C.
